Reference: US20180000768A1, “INTESTINAL FXR AGONISM ENHANCES GLP-1 SIGNALING TO RESTORE PANCREATIC BETA CELL FUNCTIONS” (Salk Institute for Biological Studies, priority 2015, published 2018)

Experiments:
NCI-H716 cells = experiment: Extracellular oxygen consumption rate assay (Seahorse XF96); format: cell-based, human
Protocol: Briefly, NCI-H716 cells were seeded in XF 96-well cell culture microplates (Seahorse Bioscience) at 6.0×10^4 cells per well in 150 μl of growth medium and then incubated at 37° C./5% CO2 for 24 hr. A Seahorse Bioscience instrument model XF96 was used to measure the rate of change of dissolved oxygen in the media surrounding the cells. All procedures followed manufacturer's instructions. […] Conversely, treatment with the FXR antagonist guggulsterone reduced basal respiratory rates and the FCCP-induced maximum respiration rate (FIGS. 9A and 9B). To examine the effects of FXR activity on the secretion of GLP-1, the metabolic changes induced in human L cells was measured after treatment with the FXR agonist, fexaramine and an FXR antagonist, guggulsterone. Treatment of L cells with fexaramine (1 μM for 24 hours) lead to an increase in the oxygen consumption rate (OCR), consistent with increased mitochondrial activity and consequently, an increased energetic state (FIG. 9A). The reverse effect was seen after treatment with the FXR antagonist, guggulsterone, with lower OCR after drug treatment.

[1] = tested on: pancreatic islets from ob/ob mice; experiment: Insulin secretion assay on isolated pancreatic islets (ex vivo); format: cell-based, mouse; details: islets, 100 nM Exendin-4
Protocol: Mouse pancreatic islets were isolated from ob/ob mice according to a method used for rats traditionally. Briefly, 0.5 mg/ml collagenase P (Roche) diluted in HBSS buffer was injected through the common bile duct and the perfused pancreas was dissected and incubated in water bath with 37° C. for 21 minutes. Digested exocrine cells and intact islets were separated using Histopaque-1077 (SIGMA) with centrifugation by 900 g for 15 minutes and intact islets were picked up manually.
Insulin release from intact islets was monitored using batch incubation methods.
Isolated pancreatic islets were cultured over-night with […] supplemented with 10% (v/v) fetal bovine serum and 1% (v/v) Antibiotics-antimycotic solution, were pre-cultured at 37° C. for 30 minutes in Krebs Ringer bicarbonate buffer (KRBH) containing 129.4 mM NaCl, 3.7 mM KCl, 2.7 mM CaCl2, 1.3 mM KH2PO4, 1.3 mM MgSO4, 24.8 mM NaHCO3 (equilibrated with 5% CO2, 95% O2, pH7.4), 10 mM HEPES and 0.2% (v/v) BSA (fraction V) with 3 mM glucose. N ext, the pancreatic islets were incubated for 30 minutes KRBH buffer (500 μl/10 islets) with 3 mM or 20 mM glucose with or without 100 nM Exendin-4 to determine insulin secretion levels. At the end of the incubation period, islets were pelleted by centrifugation, and aliquots of the buffer were sampled. The amounts of insulin were determined by Rat/mouse Insulin ELISA KIT (Millipore) for mice islets.

[2] = in vitro permeability in Caco2 cells; details: human; for Papp A→B at 2 h, 10 μM: Caco2 cells, assay conc. 10 μM
isolated islets = experiment: gene expression after direct ex vivo treatment of isolated islets; format: cell-based, mouse; details: 24 hours ex vivo, XL335 1 μM, Fex 1 μM
Protocol: Leptin-deficient ob/ob mice were treated daily with vehicle, Fex, or the analogue Fex-D (50 mg/kg) via P.O. for 14 days (A) Chemical structures of fexaramine and Fex-D (B) Schematic of the experimental design (C) Serum glucose levels (D) Glucose tolerance test (E) Insulin secretion in vivo (F) GLP-1 secretion in vivo (G) Heatmap showing hierarchal clustering of gene expression changes in islet induced by Fex (100 mg/kg, 4 wks) and FexD (50 mg/kg, 2 weeks) treatment in ob/ob mice (in vivo); by treatment of islets with XL335 (1 μM), Fex (1 μM), mFgf15 and hFgf19 (24 hours ex vivo); and mFgf15 (0.15 mg/kg, 2 weeks) and INT777 (Tgr5, 60 mg/kg, 4 weeks) treatment of ob/ob mice (in vivo). Gene expression was measured by RNA-Seq and changes are expressed as Z-score. (H) Ven diagram of changes in gene expression in pancreatic islets induced by FEX (100 mg/kg for 5 weeks) and FEX-D (50 mg/kg for 14 days). […] Data represent the mean±STD. Statistical analysis was performed with the Student's t test. *p<0.05, **p<0.01.
Next, primary islets were isolated from mice treated by Fex-D to compare gene expression changes.

in vitro = details: human
[3] = tested on: human enteroendocrinal L cells (NCI-H716); experiment: In vitro GLP-1 secretion assay; format: cell-based; details: L cells pretreated with compound
Protocol: In vitro GLP-1 secretion assay was performed in human enteroendocrinal L cells (NCI-H716). For each secretion assay, cells were seeded at 1×10^5 cells/ml (1 ml/well) in a matrigel-coated 24-well plate. Prior to GLP-1 secretion assay, cells were pre-treated with DMSO, 1 μM Fex, or 1 μM Fex-D overnight. Cells were deprived in Krebs buffer (with 0.1% BSA) with dipeptidyl peptidase (DPP)-4 inhibitor ([…] sitagliptin). GLP-1 was measured with a commercial kit (EZGLP1T-36K, Millipore). For in vivo GLP-1 secretion, each animal was gavaged with 25 mg per kg of body weight sitagliptin 60-minutes before glucose load. Blood was collected from the tail vein at the indicated intervals, and transferred to serum collection tubes containing sitagliptin.

enteroendocrinal L cells = experiment: Gene expression analysis (QPCR) in enteroendocrinal L cells; format: cell-based, human
ob/ob mice = experiment: gene expression (RNA-Seq, QPCR) in tissues of treated ob/ob mice; format: in vivo, mouse; details: INT-777 60 mg/kg P.O. for 5 weeks
Protocol: Total RNA was isolated from cell pellets treated with RNAlater using the RNA mini kit (Qiagen) and treated with DNaseI (Qiagen) for 30 minutes at room temperature. Sequencing libraries were prepared from 100-500 ng total RNA using the TruSeq RNA Sample Preparation Kit v2 (Illumina) according to the manufacturer's protocol. Briefly, mRNA was purified, fragmented, and used for first-, then second-strand cDNA synthesis followed by adenylation of 3′ ends. Samples were ligated to unique adapters and subjected to PCR amplification. Mulitplexed libraries were then validated using the 2100 BioAnalyzer (Agilent), normalized, and pooled for sequencing. RNA-Seq libraries prepared from two biological replicates for each experimental condition were sequenced on the Illumina HiSeq 2500 using bar-coded multiplexing and a 100 bp read length.
Image analysis and base calling were performed with Illumina CASAVA-1.8.2. This yielded a median of 29.9M usable reads per sample. Short read sequences were mapped to a UCSC mm9 reference sequence using the RNA-seq aligner STAR. Known splice junctions from mm9 were supplied to the aligner and de novo junction discovery was also permitted. Differential gene expression analysis, statistical testing and annotation were performed using Cuffdiff 2. Transcript expression was calculated as gene-level relative abundance in fragments per kilobase of exon model per million mapped fragments and employed correction for transcript abundance bias. RNA-Seq results for genes of interest were also explored visually using the UCSC Genome Browser.

[4] = Caco-2, A-B Permeability Ranking
[5] = Caco-2, Mean Papp, A-B, 2 hour incubation

Papp B→A at 2 h, 10 μM ([2]; Caco-2)	recovery at 2 h, 10 μM ([2]; Caco-2)	Papp A→B at 2 h, 10 μM [2, 4]	Papp A→B at 2 h, 10 μM [2, 5]	Compound	also measured
0.0399 ×10⁻⁶ cm/s	69.9%	< 1 ×10⁻⁶ cm/s	0.0104 ×10⁻⁶ cm/s	[2H]C(c1ccc(-c2ccc3c(cnn3C)c2)cc1)N(C(=O)C1CCCCC1)c1cc(F)cc(/C=C/C(=O)OC)c1 (stereo not shown) [NSSK 00096]	–
0.23 ×10⁻⁶ cm/s	192%	< 1 ×10⁻⁶ cm/s	0.0294 ×10⁻⁶ cm/s	[2H]C(c1ccc(-c2ccc(N(C)C)cc2)cc1)N(C(=O)[C@@H]1C[C@@H]2CC[C@H]1C2)c1cc(F)cc(/C=C/C(=O)OC)c1 (stereo partly shown) [NSSK 00024]	–
0.922 ×10⁻⁶ cm/s	92.7%	< 1 ×10⁻⁶ cm/s	0.274 ×10⁻⁶ cm/s	CNC(=C[N+](=O)[O-])NCCSCc1ccc(CN(C)C)o1 [Ranitidine]	efflux ratio at 2 h, 10 μM ([2]; Caco-2): 3.36
0.064 ×10⁻⁶ cm/s	67.1%	< 1 ×10⁻⁶ cm/s	0.0962 ×10⁻⁶ cm/s	[2H]C(c1ccc(-c2ccc3c(cnn3C)c2)cc1F)N(C(=O)C1CCCCC1)c1cccc(/C=C/C(=O)OC)c1 (stereo not shown) [NSSK 00089]	–

More lines, now with the values behind:

Compound	Papp B→A at 2 h, 10 μM ([2]; Caco-2)	recovery at 2 h, 10 μM ([2]; Caco-2)	Papp A→B at 2 h, 10 μM [2, 4]	Papp A→B at 2 h, 10 μM [2, 5]	also measured
C/C=C1\C(=O)C[C@H]2[C@@H]3CCC4=CC(=O)CC[C@]4(C)[C@H]3CC[C@]12C [guggulsterone]	–	–	–	–	basal respiratory rates and the FCCP-induced maximum respiration rate (NCI-H716 cells; L cells, guggulsterone 10 μM for 24 hr): reduced; oxygen consumption rate (OCR) (NCI-H716 cells; human L cells, 24 hours, fexaramine 1 μM, guggulsterone 10 μM): lower
Exendin-4: GLP-1 agonist	–	–	–	–	ex vivo insulin secretion in presence of GLP-1 agonist [1]: further potentiated
CC(C)OC(=O)C1=CN(C(=O)c2ccc(F)c(F)c2)CC(C)(C)c2c1[nH]c1ccccc21 [XL335]	–	–	–	–	transcriptional changes seen in islets in vivo with Fex and Fex-D (isolated islets): not observed
hFgf19: hFgf19 protein used for direct ex vivo treatment of isolated islets	–	–	–	–	transcriptional changes seen in islets in vivo with Fex and Fex-D (isolated islets): not observed
CC(=O)CC(c1ccccc1)c1c(O)c2ccccc2oc1=O (stereo not shown) [Warfarin]	–	–	–	–	Papp B→A at 2 h, 10 μM (in vitro; Caco-2): 29.8 ×10⁻⁶ cm/s; efflux ratio at 2 h, 10 μM (in vitro; Caco-2): 0.695; recovery at 2 h, 10 μM (in vitro; Caco-2): 101%; Papp A→B at 2 h, 10 μM (in vitro; [4]): > 1 ×10⁻⁶ cm/s; Papp A→B at 2 h, 10 μM (in vitro; Caco-2, Mean Papp, A-B): 42.8 ×10⁻⁶ cm/s
CC[C@H]1[C@@H](O)[C@@H]2[C@H](C[C@H](O)[C@]3(C)[C@@H]([C@H](C)C[C@H](C)C(=O)O)CC[C@@H]23)[C@@]2(C)CC[C@@H](O)C[C@@H]12 [INT-777]	–	–	–	–	GLP-1 secretion in response to a glucose challenge [3]: increased; SHP expression (FXR target gene) (enteroendocrinal L cells): not; proglucagon expression (enteroendocrinal L cells): selectively induced; expression of the GLP-1 receptor in islets (ob/ob mice): significantly increased
